Results from patent publication US20220071921A1, “COMPOUNDS FOR PREVENTING AND TREATING SKIN OR MUCOSAL AFFECTIONS HAVING AN INFLAMMATORY COMPONENT” (GIULIANI S.P.A., priority 2018, published 2022).

Tests used:
Dermcidin [1] = assay: Microarray analysis of human microdissected scalp hair follicles; type: cell-based; conditions: sandal pentanol 500 μM, 6 hours, vs vehicle (0.1% DMSO)
Experimental: (§1) Human scalp samples were obtained 1 day after face-lifting procedure (i.e. after overnight transport from collaborating surgeons) and used at the same day for microdissecting human anagen VI scalp HFs. […] Microdissected human scalp HFs were cultured at 37° C. with 5% CO2 in a minimal media of William's E media (WEM, Gibco, Life technologies) supplemented with 2 mM of L-glutamine (Gibco), 10 ng/ml hydrocortisone (Sigma-Aldrich), 10 μg/ml insulin (Sigma-Aldrich) and 1% penicillin/streptomycin mix (Gibco) (WEM). After microdissection, the HFs were first incubated in WEM for 24 hrs for re-equilibration.
(§2) After 24 hours, WEM medium was replaced and HFs were treated with vehicle (0.1% DMSO), sandal pentanol 500 μM, for 3 or 5 days for (immuno-)histology or 6 hours for microarray. Culture medium was replaced every second day and after […], HFs were then embedded in cryomatrix (Fisher Scientific), and snap frozen in liquid nitrogen for (immuno-)histology.

Dermcidin [2] = assay: Dermcidin immunofluorescent staining in human microdissected scalp hair follicle organ culture; type: cell-based; conditions: 500 μM, 3 and 5 days, ex vivo
Experimental: as §1, §2
OCT embedded samples were sectioned with a Leica cryostat. Dermicidin protein was detected using tissue sections fixed in 4% paraformaldehyde, pre-incubated with 10% of goat serum, and incubated with a mouse anti-human Dermcidin (Novus Biologicals, G-81, 1:200). Secondary antibody (Goat anti—mouse Alexa fluor 488) incubation was performed at room temperature for 45 min. Counterstaning with DAPI (1 μg/mL) was performed to visualize nuclei.

Question: Which results are given for `CC1=CCC(CCC(C)C(C)O)C1(C)C` (stereo not drawn) [Sandalore, 3-methyl-5-(2,2,3-trimethylcyclopent-3-en-1-yl)pentan-2-ol]?
Answer: Dermcidin expression increase (microarray) (Dermcidin [1]): 77.6 folds; transcripts of AMPs genes (microarray) (Dermcidin [1]): up-regulated; Dermcidin protein expression in hair follicle outer root sheath keratinocytes (Dermcidin [2]): increased
